According to US12497378B2, “Tetrahydronaphthalene compounds, pharmaceutical compositions, and uses thereof” (GUANGZHOU HENOVCOM BIOSCIENCE CO., LTD., priority 2020, dated 2025):

Test: Pharmacokinetics experiment in mouse after intramuscular injection of compound suspensions
Format: in vivo
Settings: 9 mg/kg (calculated according to Rotigotine), SD mice, plasma
Protocol: The compounds of the present disclosure were precisely weighed in a proper amount and placed in a 20 ml vial, a blank matrix solution and a zirconia grinding ball were added to grind by vortex. After grinding, the suspension sample was transferred, and the blank matrix solution was used for diluting the suspension sample to final volume, and the suspension sample was packaged into 7 ml vials to prepare about a 20 mg/ml suspension. After the quantitative analysis was determined, the suspension was used for the pharmacokinetics experiment in the mouse.
Suspensions of Embodiments 15, 24, 27, 32 and 54 were prepared according to the method of Embodiment 82 and were taken at a dose of 9 mg/kg(calculated according to Rotigotine), and each of the above-mentioned compound suspensions was intramuscularly administrated for three SD mice, and whole blood samples were taken in 1 h, 4 h, 8 h, 24 h, 48 h, 72 h, 96 h, 120 h, 168 h, 216, 264 h, 312 h, and 360 h after administration, with 0.3 ml/time point. K2EDT/heparin sodium were added to the whole blood samples for anticoagulation, and a BNPP stabilizer was further added, and then each whole blood sample was centrifuged to obtain plasma in 30 min.

Substance: (S)-6-(propyl(2-(thiophen-2-yl)ethyl)amino)-5,6,7,8-tetrahydronaphthalen-1-yl 3-(16-(ethylamino)-16-oxohexadecanamido) propanoate [Embodiment 54]
- blood concentrations of the active compounds (1 h after intramuscular injection of compound suspension): 0.288 ng/mL
- blood concentrations of the active compounds (4 h after intramuscular injection of compound suspension): 1.26 ng/mL
- blood concentrations of the active compounds (8 h after intramuscular injection of compound suspension): 2.53 ng/mL
- blood concentrations of the active compounds (24 h after intramuscular injection of compound suspension): 2.31 ng/mL
- blood concentrations of the active compounds (48 h after intramuscular injection of compound suspension): 2.02 ng/mL
- blood concentrations of the active compounds (72 h after intramuscular injection of compound suspension): 1.51 ng/mL
- blood concentrations of the active compounds (96 h after intramuscular injection of compound suspension): 1.57 ng/mL
- blood concentrations of the active compounds (120 h after intramuscular injection of compound suspension): 1.86 ng/mL
- blood concentrations of the active compounds (168 h after intramuscular injection of compound suspension): 2.29 ng/mL
- blood concentrations of the active compounds (216 h after intramuscular injection of compound suspension): 2.76 ng/mL
- blood concentrations of the active compounds (264 h after intramuscular injection of compound suspension): 1.83 ng/mL
- blood concentrations of the active compounds (312 h after intramuscular injection of compound suspension): 1.33 ng/mL
- blood concentrations of the active compounds (360 h after intramuscular injection of compound suspension): 0.906 ng/mL
